The subject of series [1] is interleukin 2 (IL-2) production by human peripheral blood T cells. Kind of series: Inhibition test for interleukin 2 (IL-2) production by human peripheral blood T cells. The series is classed as cell-based. The note with it: anti-CD3 antibody coated plates; CHO cells expressing B7-1; 48 hours, 37° C.; read-out: IC50 value (concentration for 50% suppression of interleukin-2 production). The method, then: a) Expression of B7-1 in CHO cells
Using petri dishes 10 cm in diameter, 1×10^5 Chinese hamster ovary (CHO) cells were cultured in an αMEM medium containing 10% fetal bovine serum for 24 hours. To these cells, the B7-1 cDNA expression plasmid pME-B7-1 as obtained in Reference Example 1 (10 μg) and the neomycin resistance expression plasmid pME-neo (1 μg) were introduced by the calcium phosphate method. Forty-eight hours later, GENETICIN (G418 sulfate, GIBCO) was added to a final concentration of 0.5 mg/ml, and cells that acquired neomycin resistance were selected. For these selected cells, B7-1 expression was examined by flow cytometry (EPICS ELITE, COULTER), and cells showing high expression of B7-1 were obtained. These cells were cloned by the limiting dilution method to obtain B7-1-CHO-22, a cell line that stably expresses high amount of B7-1.
Inhibition test for interleukin 2 (IL-2) production by human peripheral blood T cells
Blood was collected from a healthy normal human, overlaid on lymphocyte separation medium (LSM, Organon Teknica Co.), and centrifuged at room temperature at 2,000 rpm for 20 minutes to obtain human peripheral blood mononuclear cells. […] The IL-2 produced in the culture supernatant was quantified using the HUMAN INTERLEUKIN-2 EIA KIT (Cayman Chemical Co.).

In another series the test system is mice. Description: Toxicity test. The series is classed as in vivo. The note with it: intraperitoneally, 400 mg/kg.
The next series concerns the target T1, binding of B7-1 to CD28 (Homo sapiens, UniProt P10747+P33681).
T1 construct: ligating the Fc region of human IgG to the C-terminal side of the extracellular region of B7-1; Fc region of human IgG (from plasmid pTB1455); expressed in transfected cells; soluble B7-1-Ig made in house by sB7-1-Ig-CHO-20 and purified from its supernatant
Kind of series: Binding inhibition test using soluble B7-1-Ig. The note with it: 10 μg/ml soluble B7-1-Ig; fixed CD28-expressing CHO cells; 30 minutes at room temperature; read-out: IC50 (concentration for 50% inhibition of binding) (converted). The method, then:
b) Expression of CD28 in CHO cells
Using petri dishes 10 cm in diameter, 1×10^5 dihydrofolate reductase deficient (DHFR^-) CHO cells were cultured in an αMEM medium containing 10% fetal bovine serum for 24 hours. To these cells, the CD28cDNA expression plasmid pAKKO-CD28as obtained in Reference Example 1 (10 μg) was introduced by the calcium phosphate method. Forty-eight hours later, the medium was replaced with an αMEM medium (no nucleic acid contained) containing 10% dialyzed fetal bovine serum, and cells incorporating the plasmid in their chromosome were selected. For these selected cells, CD28 expression was examined by flow cytometry (EPICS ELITE, COULTER), and cells showing high expression of CD28were obtained. These cells were cloned by the limiting dilution method to obtain CD28-CHO-11, a cell line that stably expresses high amount of CD28. […]
c) Establishment of CHO cells that produce soluble B7-1-Ig
Using petri dishes 10 cm in diameter, 1×10^5 dihydrofolate reductase deficient (DHFR^31 ) CHO cells were cultured in an αMEM medium containing 10% fetal bovine serum for 24 hours. To these cells, 10 μg of the expression plasmid encoding soluble B7-1-Ig as obtained in Reference Example 22 was introduced by the calcium phosphate method. Forty-eight hours later, the medium was replaced with an αMEM medium (no nucleic acid contained) containing 10% dialyzed fetal bovine serum, and cells incorporating the plasmid into their chromosome were selected. For these selected cells, the amount of soluble B7-1-Ig produced in the culture supernatant was measured by EIA, and cells showing high productivity were obtained. These cells were cloned by the limiting dilution method to obtain sB7-1-Ig-CHO-20, a cell line that stably produces soluble B7-1-Ig. […]
d) Preparation of soluble B7-1-Ig
Using petri dishes 15 cm in diameter, the soluble B7-1-Ig-producing CHO cells obtained in term c) above (sB7-1-Ig-CHO-20) were cultured in an αMEM medium containing 10% fetal bovine serum to yield 5 l of culture supernatant. This culture supernatant was crudely purified using a protein G column (Chromatop Superprotein G, […] I.D.×10 cm, NGK Insulators, Ltd.) and further purified by gel filtration chromatography (TSKgel G3000SW, […] I.D.×[…], Tosoh) to yield 20 mg of a purified standard preparation.
Binding inhibition test using soluble B7-1-Ig
The CHO cells that expressed CD28obtained in Example 122 were suspended in an αMEM medium (no nucleic acid contained) containing 10% dialyzed fetal bovine serum, seeded into 96-well microplates (flat bottom) to 3×10^4 cells/well, and cultured in the presence of 5% CO2 at 37° C. for 48 hours. The culture supernatant was removed by aspiration from each plate to which cells adhered, followed by the addition of phosphate buffer saline (PBS) containing 0.5% paraformaldehyde to fix the cells. After this plate was washed twice with PBS containing 10% Block Ace (Snow Brand Milk Products), 10 μg/ml soluble B7-1-Ig and a sample were added to each well. Binding reaction was carried out by keeping the plate standing at room temperature for 30 minutes. After the reaction, the plate was washed twice with PBS containing 10% Block Ace (Snow Brand Milk Products), followed by the addition of peroxidase-labeledanti-human IgG (Cappel) and 2 hours of reaction. The plate was further washed twice with PBS containing 10% Block Ace (Snow Brand Milk Products), after which 100 μl of a 0.1M citrate buffer containing 6.5 mg/ml ortho-phenylenediamine dihydrochloride (Wako Pure Chemical Industries) and 0.06% hydrogen peroxide was added to each well. Twenty minutes later, the coloring reaction was stopped with 2N sulfuric acid, and the absorbance at 492 nm was determined using a plate reader (BIO-RAD Model 1450).

Converted amounts (≈) assume the structure as drawn.

T1 sequence (P10747 19-220): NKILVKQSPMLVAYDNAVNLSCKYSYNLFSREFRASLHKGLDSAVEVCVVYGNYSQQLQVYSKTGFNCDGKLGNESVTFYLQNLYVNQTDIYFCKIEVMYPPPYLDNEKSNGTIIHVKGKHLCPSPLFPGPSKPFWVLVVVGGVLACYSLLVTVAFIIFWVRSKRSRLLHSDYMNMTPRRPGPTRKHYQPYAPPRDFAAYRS
T1 sequence (P33681 with tags, fused parts or gaps): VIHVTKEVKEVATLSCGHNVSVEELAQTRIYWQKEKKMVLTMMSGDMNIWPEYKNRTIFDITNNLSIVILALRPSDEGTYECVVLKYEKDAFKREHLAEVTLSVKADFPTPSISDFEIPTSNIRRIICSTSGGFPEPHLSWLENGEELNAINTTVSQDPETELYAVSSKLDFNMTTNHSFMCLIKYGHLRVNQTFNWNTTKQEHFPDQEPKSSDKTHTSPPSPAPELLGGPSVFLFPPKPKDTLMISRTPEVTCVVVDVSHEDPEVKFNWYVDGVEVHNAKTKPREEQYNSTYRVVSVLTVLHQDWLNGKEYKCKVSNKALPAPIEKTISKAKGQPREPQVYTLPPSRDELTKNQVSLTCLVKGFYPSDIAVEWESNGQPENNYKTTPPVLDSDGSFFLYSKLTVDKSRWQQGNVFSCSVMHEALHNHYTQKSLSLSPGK

In the case of `COC(=O)c1c(SCC(=O)O)c(O)cc2oc3c(Cl)c(C)c(Cl)c(O)c3c(=O)c12` [Compound 1], the IC50 in series [1] is 10 µg/mL (≈ 21.8 µM); on binding of B7-1 to CD28 it was 0.305 µM. Further, in the series with mice, the “deaths after intraperitoneal administration” value is “no animals died”.
In the case of `COC(=O)c1c([S+]([O-])CC(=O)O)c(O)cc2oc3c(Cl)c(C)c(Cl)c(O)c3c(=O)c12` (centres unmarked) [Compound 17, methyl 2-(carboxymethylsulfinyl)-5,7-dichloro-3,8-dihydroxy-6-methyl-9-oxo-9H-xanthene-1-carboxylate], at binding of B7-1 to CD28, the IC50 is below 0.21 µM.
As for `CCC(=O)Oc1c(Cl)c(C)c(Cl)c2oc3cc(O)c(SCC(=O)O)c(C(=O)OC)c3c(=O)c12` [Compound 27], the IC50 at binding of B7-1 to CD28 was below 0.194 µM.
Take `COC(=O)c1c(SCC(=O)O)c(O)c(I)c2oc3c(Cl)c(C)c(Cl)c(O)c3c(=O)c12` [Compound 40]: at binding of B7-1 to CD28, the IC50 was 0.171 µM.
As for `COC(=O)c1c([S+]([O-])CC(=O)O)c(O)c(I)c2oc3c(Cl)c(C)c(Cl)c(O)c3c(=O)c12` (centres unmarked) [Compound 54, methyl 2-(carboxymethylsulfinyl)-5,7-dichloro-3,8-dihydroxy-4-iodo-6-methyl-9-oxo-9H-xanthene-1-carboxylate], at binding of B7-1 to CD28, the IC50 was below 0.166 µM.
`COC(=O)c1c(SCC(=O)O)c(O)c([N+](=O)[O-])c2oc3c(Cl)c(C)c(Cl)c(O)c3c(=O)c12` [Compound 132]: on binding of B7-1 to CD28, the IC50 was 0.238 µM.

The record behind these values is patent US6221637A, “Xanthene derivatives, their production and use” (Takeda Chemical Industries, Ltd., priority 1996, dated 2001).
